Assay results from patent publication US20230086833A1, “DEFIBROTIDE TREATMENT FOR THE PREVENTION OF ORGAN REJECTION AND INJURY” (Jazz Pharmaceuticals Ireland Limited, priority 2020, published 2023).

System: autologous dog kidney transplant model for IRI
Assay: Autologous dog kidney transplant model for ischaemia reperfusion injury (IRI)
Assay type: in vivo
Description: An autologous dog kidney transplant model for IRI was developed (FIG. 1). The right kidney was removed from a dog at day 0 of the study and was exposed to cold ischemia for 32 hours. After exposure to cold ischemia, the right kidney developed IRI. Subsequently, in an autotransplant, the right kidney was implanted, and the left kidney was removed. Defibrotide was administered to the dog prior to transplant and after transplant four times per day for 7 days at doses of 3 mg/kg, 10 mg/kg, or 25 mg/kg. Clinical endpoints were evaluated, including bleeding at the anastomosis site, coagulation, renal function labs, serum creatinine, blood urea nitrogen (BUN), histopathology at sacrifice, and the measurement of biomarkers, including endothelin-1, Kim-1, ICAM-1, E-selectin, t-PA, PAI-1, Thrombomodulin, IL-6, TNF-α, MCP-1, and A2M.
The gross dog kidney morphology was evaluated at the termination of the study.
The creatinine level, a marker of renal function, was measured pre-transplant and post-transplant after treatment with saline control, 3 mg/kg, 10 mg/kg, or 25 mg/kg of defibrotide. […] Each curve represents a different dog.

**Q.** For defibrotide, which “severity of hemorrhage after IRI (FIG. 2, dose response)” value (after higher doses of defibrotide, saline control) is on record?
**A.** Its value is “the severity of hemorrhage lessened”.

**Q.** What about the “creatinine levels (marker of renal function, FIG. 3)” value (after six days of defibrotide, 3, 10 or 25 mg/kg, post-transplant) of the same substance?
**A.** Its value is “decreased to levels just above normal”.

**Q.** What about the “hemorrhage, gross dog kidney morphology at the termination of the study” value (higher doses of defibrotide (3, 10 or 25 mg/kg, four times per day for 7 days), kidney exposed to cold ischemia for 32 hours) of the same substance?
**A.** Its value is “Minimal hemorrhage”.

**Q.** What about the “renal function post IRI” value (higher doses of defibrotide, after transplant) of the same substance?
**A.** Its value is “improved renal function”.
